Where no end group is shown, it is not given here. [ ]: non-standard residue; d: D form. hCys = N[C@@H](CCS)C(=O)O
Experiments:
[1] = system: rat metastatic prostate carcinoma MatLyLu (MLL) cells; experiment: SU-ECM invasion assay, rat MatLyLu prostate carcinoma cells; format: cell-based; conditions: 10% FCS, FIG. 8
Method: (§1) Adult Strongylocentrotus purpuratus sea urchins were obtained from Pacific BioMarine, and their embryos were cultured to the early pluteus stage in artificial sea water at 15° C. SU-ECM were prepared from them by treatment with nonionic detergent and strerilized by dilution in the appropriate media.
(§2) Cells were harvested by rinsing in Hanks' balanced salt solution, followed by brief treatment with 0.25% trypsin, 0.02% EDTA, and pelleting and resuspension in the appropriate medium with or without 5% FCS at a density of about 50,000 cells per ml. When appropriate, purified bovine plasma fibronectin (Sigma), purified 120 kDa chymotryptic fragment (Gibco BRL), PHSRN (SEQ ID NO:1) or PHSCN (SEQ ID NO:86) peptides (synthesized at the Biomedical Research Core Facilities of the University of Michigan), or GRGDSP (SEQ ID NO:83) or GRGESP (SEQ ID NO:84) peptides (Gibco BRL) were added to the resuspended cells prior to placement of the cells on SU-ECM. In each well of a plate used for an invasion assay, SU-ECM were placed in 0.5 ml of the appropriate medium, and 0.5 ml of the resuspended cells dropped on their exterior surfaces. Invasion assays were incubated 1 to 16 hours prior to assay. If some circumstances, invasion assays were fixed in phosphate-buffered saline (PBS) with 2% formaldehyde for 5 minutes at room temperature, then rinsed into PBS.
(§3) Invasion assays were coded and scored blindly by microscopic examination under phase contrast at 200- and 400-fold magnification. Each cell contacting an SU-ECM was scored for its position relative to the exterior or interior surfaces. A cell was judged to have invaded if it was located on an interior surface below the focal plane passing through the upper surface of the SU-ECM, but above the focal plane passing through its lower surface. The minimum viability of the cells in each assay was always ascertained at the time of assay by determining the fraction of spread, adherent cells on the bottom of each well scored.
(§4) An invasion frequency is defined as the fraction of cells in contact with basement membranes which were located in their interiors at the time of assay. Thus, an invasion frequency of 1 denotes invasion by 100% of the cells in contact with basement membranes. Invasion frequencies were determined multiple times for each cell type assayed. For each type of cell assayed the mean and standard deviation of the invasion frequencies were calculated.
The result of adding a varying concentration of the PHSCN (SEQ ID NO:86) peptide to PHSRN-induced (SEQ ID NO:1) MLL cells in serum free media is shown in FIG. 7B, where 100 ng per ml of PHSRN (SEQ ID NO:1) was used to induce invasion.
The procedure described in Example 10, was employed using SU-ECM substrates in 10% FCS and PHS(hC)N (SEQ ID NO:85) instead of PHSCN (SEQ ID NO:86). The result of adding varying concentrations of the PHS(hC)N (SEQ ID NO:85) peptide to serum-induced MLL cells indicates this peptide also has an inhibitory affect on cell invasion (see FIG. 8).

keratinocytes = experiment: Keratinocyte invasion of serum-free SU-ECM; format: cell-based
Description: Since, during wound reepithelialization, keratinocytes migrate through the connective tissue of the provisional matrix to “wall off” portions of the wound, as well as through the adjacent stroma, it is not surprising that they are also stimulated to migrate through the matrix of SU-ECM invasion substrates by the PHSRN (SEQ ID NO:1) sequence. […] Recruitment of fibroblasts or monocytes/macrophages whose paracrine, regulatory effects on a variety of neighboring cells are required for the early stages of wound healing is contemplated as a highly efficient and effective way to stimulate the cascade of regulatory interactions involved in wound healing because these cells will secrete the active factors or cytokines in the correct temporal sequences and spatial locations to ensure their optimal activities. Because it efficiently induces keratinocyte migration through the extracellular matrix in vitro, the PHSRN (SEQ ID NO:1) peptide is also likely to stimulate wound reepithelialization directly. The use of the PHSRN (SEQ ID NO:1) peptide or structurally related molecules according to the present invention is to stimulate the entry of cells such as fibroblasts and monocyte/macrophages into the provisional matrix of a wound, so that the entering cells themselves secrete the factors and cytokines active in inducing or potentiating wound healing. […]

[2] = system: normal, neonatal fibroblasts; experiment: Invasion of gelatin- and antibody-depleted Matrigel by fibroblasts; format: cell-based; conditions: Matrigel depleted by gelatin and antibody panning, FIG. 4
Method: Anti-fibronectin antibody-coated wells: Wells of a 24-well plate were coated with an anti-fibronectin antibody. A mouse monoclonal antibody to human fibronectin was obtained from Oncogene Science (Catalog #CP13). Each well was incubated with 1 ml of antibody at a concentration of 30 μl/ml for 2 hours at room temperature. Each well was then incubated with a solution of 3% BSA in PBS for 2 hours at room temperature. Following the two incubation periods, the wells were thoroughly washed with PBS and stored at −20 C. until use.
Depleting Matrigel of Fibronectin: Matrigel was panned over eight gelatin-coated wells (as described above in Example 2) to remove most of the fibronectin and its fragments. Thereafter, the Matrigel was placed in the antibody-coated wells to remove any remaining fragments of fibronectin which contain the cell-binding domain but not the gelatin-binding domain. The Matrigel was incubated in an ice bucket on an orbital shaker at 4 C. for 2 hours. Once the Matrigel was depleted, it was collected in Eppendorf tubes. The firbonectin-depleted Matrigel was plated on a 48-well plate (150 μl/well), sterilized under a UV light for 10 minutes and incubated at 37 C. overnight. The Matrigel formed a gel and the following day, cells were added to the wells. […]

[3] = system: neonatal, human fibroblasts; experiment: Fibroblast invasion of SU-ECM basement membranes; format: cell-based; conditions: for stimulation of fibroblast invasion of basement membranes in vitro: in the presence of serum or under serum-free conditions
Method: as §1
as §2, with “If some circumstances, invasion assays were fixed in phosphate-buffered saline (PBS) with 2% formaldehyde for 5 minutes at room temperature, then rinsed into PBS.” left out
as §3, with “A cell was judged to have invaded if it was located on an interior surface below the focal plane passing through the upper surface of the SU-ECM, but above the focal plane passing through its lower surface.” left out
as §4, with “Thus, an invasion frequency of 1 denotes invasion by 100% of the cells in contact with basement membranes.” left out, “calculated. […]” for “calculated.”

[4] = system: metastatic SUM-52 PE breast cancer cells; experiment: SU-ECM invasion assay, SUM-52 PE breast cancer cells; format: cell-based, human; conditions: SUM-52 cells
Method: Human breast carcinoma cell lines SUM 52 PE and SUM 44 PE were originally cultured from the pleural effusions of patients with metastatic breast cancer; and SUM 102 was cultured from a primary, microinvasive breast carcinoma (Ethier, S. P., Mahack, M. L., Gullick, W. J., Frank, T. S., and Weber, B. L. Differential isolation of normal luminal mammary epithelial cells and breast cancer cells from primary and metastatic sites using selective media. Cancer Res. 53: 627-635).
as §1, §2, §3, §4
The method of Example 4 is employed, with the addition of varying concentrations of the PHSCN (SEQ ID NO:86) peptide.
Thus, the procedure in Example 4 provides a method for determining the inhibitory potential of the PHSCN (SEQ ID NO:86) peptide by comparing the number of cell invasions in the presence of the PHSCN (SEQ ID NO:86) peptide, with the number of cell invasions in the absence of the PHSCN (SEQ ID NO:86) peptide.

[5] = system: metastatic DU-145 prostate cancer cells; experiment: SU-ECM invasion assay, DU-145 prostate cancer cells; format: cell-based, human; conditions: DU-145 cells
[6] = system: DU-145 metastatic prostate cancer cells; experiment: Invasion of fibronectin-depleted Matrigel by DU-145 cells; format: cell-based, human; conditions: 0.5 μl/ml peptide added to gelatin-panned Matrigel, FIG. 3
Method: This example describes a purification approach for removal of plasma fibronectin (and/or cellular fibronectin) from a substrate (Matrigel). In this example, removal was attempted by successive panning on gelatin. Eight wells of 24-well plate were coated with a 2% gelatin solution (the gelatin was obtained from Becton Dickinson Labware, Catalog #11868). The wells were filled with the gelatin solution which had been heated to 50 C. and incubated for 3 minutes. Then the solution was removed and the wells were allowed to air dry. Following drying, the wells were thoroughly rinsed with ddH2O followed by two rinses with PBS. The plates were again allowed to dry; thereafter they were stored at −20 C. until use. Matrigel was thawed on ice and then added to one of the wells of a gelatin-coated plate (between 800 μl and 1 ml of Matrigel was added to a well of a 24-well plate). The plate was placed in a bucket of ice in a 4 C. room on an orbital shaker where the Matrigel was incubated in the well for two hours (although overnight incubation can be used). Following the incubation, the Matrigel was moved from the first well to a second well and then incubated for two hours under the same conditions. This process was repeated until the Matrigel had been incubated on all eight wells of the gelatin-coated plate.
Following the depletion of the Matrigel, it was collected in Eppendorf tubes. […]

Substance | inhibition of serum-induced invasion of SU-ECM ([1]; higher concentrations) | inhibition of serum-induced invasion of SU-ECM ([1]; lower concentrations) | stimulation of keratinocyte invasion (keratinocytes) | induction of fibroblast invasiveness on depleted Matrigel [2] | stimulation of fibroblast invasion of basement membranes in vitro [3] | induction of fibroblast invasion of SU-ECM ([3]; serum-free SU-ECM) | induction of invasion of the SU-ECM substrate [4] | induction of invasion of the SU-ECM substrate [5] | restoration of DU-145 invasiveness on depleted Matrigel [6]
PHS(hC)N: homo-cysteine containing peptide (PHS[hCys]N) | completely inhibits invasion | substantially inhibits invasion | – | – | – | – | – | – | –
Pro-His-Ser-Arg-Asn (PHSRN) | – | – | stimulate keratinocyte invasion | invasiveness of the fibroblasts could be induced | sufficient to stimulate fibroblast invasion | induced | induced to invade | induced to invade | sufficient to restore the full DU-145 invasiveness
intact plasma fibronectin: purified bovine plasma fibronectin (Sigma); a significant component of serum | – | – | – | – | fails to stimulate fibroblast invasion | – | induced to invade | induced to invade | –

— patent US6472369B1, “Anticancer compounds and methods” (The Regents of the University of Michigan, priority 1996, dated 2002)
